Measurements reported in patent US20220401514A1, “ANTIMICROBIAL, BACTERIOPHAGE-DERIVED POLYPEPTIDES AND THEIR USE AGAINST GRAM-NEGATIVE AND ACID-FAST BACTERIA” (CONTRAFECT CORPORATION, priority 2019, published 2022).

Columns and labels:
[1] = test system: Klebsiella pneumoniae strain 1139; experiment: Checkerboard assay (FICI) with antibiotics, K. pneumoniae; type: cell-based
Outline: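 Antibiotics in 2-fold dilutions across one axis against Chp peptide dilutions on the other. FICI = MIC in combination/MIC alone for antibiotic plus the same ratio for peptide; minimum FICI used. Synergy at FICI ≤0.5, strongly additive >0.5 to <1, additive 1-<2, antagonistic ≥2.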

[2] = test system: P. aeruginosa strain CFS 1292; type: cell-based, Pseudomonas aeruginosa; conditions: serial passage
[3] = test system: Acinetobacter baumannii strain 30; experiment: Checkerboard assay (FICI) with antibiotics, A. baumannii; type: cell-based; conditions: checkerboard
[4] = test system: P. aeruginosa strain CFS-1292; experiment: Time-kill assay in CAA with 2.5% human serum; type: cell-based, Pseudomonas aeruginosa; conditions: for Loss of bacterial viability: CAA with […] human serum, vs untreated controls
Description: Time-Kill Assay of Chp Peptide Activity. […] Exponential phase bacteria were then diluted 1:100 into CAA/HuS and peptide was added at a final concentration of either 1 or 10 μg/mL. Control cultures were included with no peptide added (i.e., buffer control).

[5] = test system: P. aeruginosa strain PAO1; experiment: MIC against PAO1 in Mueller-Hinton broth with 50% human plasma or human serum; type: cell-based, Pseudomonas aeruginosa
[6] = checkerboard, in combination with Chp4-M1
[7] = checkerboard, in combination with Chp6-M1
[8] = checkerboard, in combination with Chp10-M1
[9] = checkerboard, in combination with Unp2-M1

Q: With `NC[C@H]1O[C@H](O[C@H]2[C@H](O)[C@@H](O[C@H]3O[C@H](CO)[C@@H](O)[C@H](N)[C@H]3O)[C@H](N)C[C@@H]2N)[C@H](N)C[C@@H]1O` [tobramycin, reference compound] as the molecule, how does the “Antibiotic FIC” value [1, 6] read?
A: The value was 0.125.

Q: What about the “Antibiotic MIC” value [1, 6] of the same molecule?
A: Its value is 3.906 ng/mL.

Q: And the “Antibiotic FIC” value [1, 7]?
A: The value was 0.125.

Q: What about the “Antibiotic MIC” value [1, 7] of the same molecule?
A: The value was 3.906 ng/mL.

Q: What about the “Antibiotic FIC” value [1, 8] of the same molecule?
A: Its value is 0.125.

Q: What about the “Antibiotic MIC” value [1, 8] of the same molecule?
A: The value was 3.906 ng/mL.

Q: What about the “Antibiotic FIC” value [1, 9] of the same molecule?
A: Its value is 0.125.

Q: What about the “Antibiotic MIC” value [1, 9] of the same molecule?
A: Its value is 3.906 ng/mL.

Q: What about the “Antibiotic FIC” value ([1]; combined with Chp2) of the same molecule?
A: Its value is 0.25.

Q: And the “Antibiotic MIC in checkerboard” value ([1]; combined with Chp2)?
A: Its value is 7.812 ng/mL.

Q: What about the “Antibiotic FIC” value ([1]; combined with Chp2-M1) of the same molecule?
A: The value was 0.25.

Q: And the “Antibiotic MIC in checkerboard” value ([1]; combined with Chp2-M1)?
A: Its value is 3.906 ng/mL.

Q: What about the “change in MIC after 21 days” value [2] of the same molecule?
A: Its value is “significant increases”.

Q: What about the “Antibiotic FIC” value ([3]; in combination with Chp2) of the same molecule?
A: Its value is 0.125.

Q: What about the “Antibiotic MIC” value ([3]; in combination with Chp2) of the same molecule?
A: Its value is 0.01562 µg/mL.

Q: What about the “Antibiotic FIC” value ([3]; in combination with Chp2-M1) of the same molecule?
A: The value was 0.25.

Q: What about the “Antibiotic MIC” value ([3]; in combination with Chp2-M1) of the same molecule?
A: Its value is 0.01562 µg/mL.

Q: And the “Antibiotic FIC” value ([3]; in combination with Chp4-M1)?
A: The value was 0.5.

Q: What about the “Antibiotic FIC” value ([3]; in combination with Chp6-M1) of the same molecule?
A: The value was 0.25.

Q: What about the “Antibiotic MIC” value ([3]; in combination with Chp6-M1) of the same molecule?
A: Its value is 0.01562 µg/mL.

Q: What about the “Antibiotic FIC” value ([3]; in combination with Chp10-M1) of the same molecule?
A: Its value is 0.25.

Q: What about the “Antibiotic MIC” value ([3]; in combination with Chp10-M1) of the same molecule?
A: Its value is 0.01562 µg/mL.

Q: What about the “Antibiotic FIC” value ([3]; in combination with Unp2-M1) of the same molecule?
A: Its value is 0.25.

Q: And the “Antibiotic MIC” value ([3]; in combination with Unp2-M1)?
A: The value was 0.01562 µg/mL.

Q: With “MARRYRLSRRRSRRLFSRTALRMHRRNRLRRIMRGGIRF [Chp4]” as the molecule, how does the “Loss of bacterial viability” value ([4]; 1 μg/mL, 1 hour) read?
A: The value was greater than 3.5 log10 CFU/mL.

Q: What about the “Loss of bacterial viability” value ([4]; 1 μg/mL, 3 hours) of the same molecule?
A: Its value is greater than 4 log10 CFU/mL.

Q: And the “Loss of bacterial viability” value ([4]; 1 μg/mL, 24 hours)?
A: The value was greater than 4.8 log10 CFU/mL.

Q: What about the “Loss of bacterial viability” value ([4]; 10 μg/mL, 1 hour) of the same molecule?
A: Its value is greater than 3.5 log10 CFU/mL.

Q: And the “Loss of bacterial viability” value ([4]; 10 μg/mL, 3 hours)?
A: The value was greater than 4 log10 CFU/mL.

Q: And the “Loss of bacterial viability” value ([4]; 10 μg/mL, 24 hours)?
A: Its value is greater than 4.8 log10 CFU/mL.

Q: What about the “bacterial viability after treatment (time-kill)” value ([4]; 1, 3 and 24 hours, 1 μg/mL and 10 μg/mL, CAA + […] human serum) of the same molecule?
A: The value was “multi-log fold decreases”.

Q: And the MIC [5]?
A: Its MIC is 2 µg/mL.

Q: What about the “Minimal inhibitory concentration, Human Serum” value [5] of the same molecule?
A: The value was 2 µg/mL.
